In brackets after ≈: the same amount, converted by molar mass.
How the values were obtained:
human platelets = assay: Light transmission aggregometry of collagen-stimulated human platelet-rich plasma; type: cell-based; conditions: human PRP, FIG. 2, 3
Description: Anti-platelet activity of compounds of invention was assessed using light transmission aggregometry assay of human platelet-rich plasma (PRP). Venous blood was obtained from male volunteers at the University Hospital Blood Bank Centre. Volunteer donors had not taken any medicines for the preceding two weeks. Blood was collected into vials containing sodium citrate (3.2%, 9:1 v/v) as an anti-coagulant agent. To obtain platelet rich plasma (PRP), blood was centrifuged at 260×g for 15 min. The platelet […] plasma fraction (used as a blank sample) was obtained by centrifugation of the remaining blood for 10 min at 2600×g. Aggregation of blood platelets was assessed in PRP with a dual channel Chronolog aggregometer (CHRONO-LOG) using a method previously described by Born^35. PRP (500 μl) was equilibrated for 2 min at 37° C. with a continuous stirring at 800 rpm and then stimulated with collagen to cause aggregation. At the beginning of each experiment, concentrations of collagen that induced sub-maximum aggregation response were determined. These concentrations were in the range of […], respectively. All the tested compounds were added 2 min prior to stimulation of platelets with collagen. Transmittance was read 6 min after stimulation of platelets with an agonist. […]

HT-1080 = assay: MTT antiproliferative assay, 48 h, HT-1080; type: cell-based, human; conditions: 48-hour exposition, read-out: Cytotoxicity, IC50, μM HT-1080
Description: Anticancer activity of compounds of invention, PDI A3-inhibitors has been tested in vitro in classical antiproliferative assay in various cancer cells lines. Monolayer tumor cell lines MDA-MB-231 (human mammary breast adenocarcinoma), MCF-7 (human breast adenocarcinoma, estrogen-positive), HT-1080 (human fibrosarcoma) and Caco-2 (human colon adenocarcinoma) were cultured in standard medium DMEM (Dulbecco's modified Eagle's medium) (“Sigma”) supplemented with 10% foetal bovine serum (“Sigma”). About 2000-4000 cells per well (depending on line nature) were placed in 96-well plates and after 24 h compounds were added to the wells. Untreated cells were used as a control. The plates were incubated for 48 h, 37° C., 5% CO2. The number of surviving cells was determined using 3-(4,5-dimethylthiazol-2-yl)-2,5-diphenyltetrazolinium bromide (MTT). MTT-test: after incubating culture medium was removed and 200 μL fresh medium with 20 μL MTT (2 mg/mL in HBSS) was added in each well of the plate. After incubation (3 hr., 37° C., 5% CO2), the medium with MTT was removed and 200 μL DMSO were added at once to each sample. The samples were tested at 540 nm on Thermo Scientific Multiskan EX microplate photometer. The half-maximal inhibitory concentration (IC50) of each compound was calculated using Graph Pad Prism® 3.0.

HL-60 = assay: MTT antiproliferative assay, 72 h, HL-60; type: cell-based, human; conditions: 72 hours exposition
Description: Anticancer activity of selected compounds of invention, PDI A3-inhibitors has been also tested in vitro in antiproliferative assay in normoxic and hypoxic conditions as well in estrogen-stimulated cancer cells. In the experiment, cells were seeded on 96-well plates (Sarstedt, Germany) in appropriate culture medium at a density of 10^5 cells/mL 24 h before adding the tested compounds. Cells were treated with each compound in four concentrations in the range 0.1-100 μg/mL. […] After 72 h of compound treatment at 37° C., 5% CO2 humid atmosphere and in wo different oxygen level conditions: 21%—normal and <1%—hypoxia. In some experiments the MDA-MB-231 and MCF-7 cells were seeded with or without 200 nM estradiol and after 24 h the tested compounds were added. A previously described sulforhodamine B antiproliferative assay was used with minor modifications (Skehan P et al., 1990). Briefly, cells were fixed with 50 μL/well of 50% (w/v) trichloroacetic acid (Avantor Performance Materials, Gliwice, Poland). After 1 h incubation, plates were washed several times with tap water and 50 μL of 0.4% (w/v) solution of sulforhodamine B (Sigma-Aldrich, Germany) in 1% (v/v) acetic acid (Avantor Performance Materials, Gliwice, Poland) was added to each well. After 30 min incubation at room temperature, unbound dye was washed out with 1% (v/v) acetic acid, whereas bound dye was solubilized with 10 mM unbuffered TRIS (Avantor Performance Materials, Gliwice, Poland) solution. The entire procedure was performed using a BioTek EL-406 washing station (BioTek Instruments, USA). After additional 30 min, absorbance was read using a Biotek Hybrid H4 reader (BioTek Instruments, USA) at 540 nm wavelength. MTT assay was used alternatively for HL-60 cell line and in the experiment in which estrogens are added (specified in the table legend). Absorbance was measured using a Biotek Hybrid H4 reader at 570 nm wavelength for MTT assay.
Compounds at each concentration were tested in triplicate in a single experiment and each experiment was repeated at least three times independently. Results are presented as mean IC50±SD.

arterial thrombosis = assay: In vivo models of arterial thrombosis; design: species or system rat or mice; conditions: FIG. 5
Description: To confirm antithrombotic activity of compounds of invention, inhibitors of PDIA3, pharmacological activity of selected compounds was tested in vivo in the rat or mice model of arterial thrombosis. Wistar rats were anaesthetized with pentobarbital (40 mg/kg, i.p.) and placed in a supine position on a heated (37° C.) operating table. Arterial thrombosis was induced by electrical stimulation of the right common carotid artery, as previously described (Kramkowski et al., 2012). Briefly, the anode, a stainless steel L-shaped wire, was inserted under the artery and connected to a constant current generator. The cathode was attached subcutaneously to the hind limb. The artery was stimulated (1 mA) for 10 min. Fifty-five minutes after the beginning of stimulation, the segment of the common carotid artery containing the formed thrombus was dissected and opened lengthwise, and the thrombus was completely removed and air-dried at room temperature for 24 h. Thrombus was then weighed in a blinded manner. Antithrombotic effects of compounds of invention in mice was analyzed using intravital fluorescence confocal microscopy as described previously (Hayashi T et al., 2008). […] Changes in fluorescence intensity were measured as described previously (Hayashi T et al., 2008, Kramkowski et al., 2002)

COC(=O)C1CN1S(=O)(=O)c1ccc2c(C=O)c(N(C)C)ccc2c1 (stereo not shown) [Compound C-3390, Methyl 1-[[6-(dimethylamino)-5-formyl-2-naphthyl]sulfonyl]aziridine-2-calboxylate]
Inhibition of platelet aggregation (human platelets): lowest EC50
IC50 (HT-1080): 7.9 ± 0.9 µM
IC50 [μg/ml] HL-60 normal (HL-60): 14.4 ± 0.7 µg/mL (≈ 39.7 µM)
Anti-thrombotic effects in vivo (arterial thrombosis): anti-thrombotic effects

Source: patent publication US20230069886A1, “AROMATIC SULPHONAMIDES DERIVATIVES THAT INHIBITS PDI A3, THEIR SYNTHESIS AND USE” (Uniwersytet Jagiellonski, priority 2020, published 2023)
